Measurements reported in patent US11524938B2, “Aromatic sulfonamide derivatives” (Bayer Pharma Aktiengesellschaft, priority 2016, dated 2022).

Biological target: T1, human P2X4 (Homo sapiens, UniProt Q99571)
T1 sequence (Q99571 1-388): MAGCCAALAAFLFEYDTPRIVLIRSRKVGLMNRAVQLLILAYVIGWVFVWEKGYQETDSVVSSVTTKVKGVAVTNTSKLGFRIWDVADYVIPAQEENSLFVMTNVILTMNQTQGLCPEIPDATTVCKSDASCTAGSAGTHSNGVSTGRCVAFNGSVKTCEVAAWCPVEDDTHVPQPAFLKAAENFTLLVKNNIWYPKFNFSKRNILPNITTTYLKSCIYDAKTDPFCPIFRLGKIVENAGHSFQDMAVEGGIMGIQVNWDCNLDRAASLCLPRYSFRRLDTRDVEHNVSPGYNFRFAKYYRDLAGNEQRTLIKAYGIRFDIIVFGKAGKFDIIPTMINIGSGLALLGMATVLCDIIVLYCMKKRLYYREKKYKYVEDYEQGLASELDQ
Test: Human P2X4 HEK Cell FLIPR Assay
Format: cell-based
Conditions: agonist Bz-ATP at EC80; for Emax: HEK293, HEK293 cells, percentage of maximal inhibition, read-out: Human P2X4 HEK Cells (FLIPR Assay) avg Efficacy [%]; for IC50: HEK293 cells, individual values listed where some fall outside detection range
Procedure, shortened: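 HEK293 cells stably expressing human P2X4, Fluo8-AM loaded 30 min at 37° C, then compound 30 min at room temperature (0.5% DMSO, pH 7.4 buffer with 1.8 mM CaCl2). Bz-ATP at its daily-determined EC80 added; calcium fluorescence read over 120 sec; IC50 from peak RFU normalized to agonist control, triplicates.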

Row | Structure (SMILES) | Emax | IC50
1 | NS(=O)(=O)c1cc(NC(=O)Cc2cc(Cl)ccc2Cl)ccc1-n1cc(C(F)(F)F)cn1 [Example 136, 2-(2,5-Dichlorophenyl)-N-{3-sulfamoyl-4-[4-(trifluoromethyl)-1H-pyrazol-1-yl]phenyl}-acetamide] | 84% | 211 nM
2 | CC(C)c1ccccc1CC(=O)Nc1ccc(-n2cc(C(F)(F)F)cn2)c(S(N)(=O)=O)c1 [Example 137, 2-(2-Isopropylphenyl)-N-{3-sulfamoyl-4-[4-(trifluoromethyl)-1H-pyrazol-1-yl]phenyl}-acetamide] | 89% | 1170 nM
3 | COc1ccc(Cl)c(CC(=O)Nc2ccc(-n3cc(C(F)(F)F)cn3)c(S(N)(=O)=O)c2)c1 [Example 138, 2-(2-Chloro-5-methoxyphenyl)-N-{3-sulfamoyl-4-[4-(trifluoromethyl)-1H-pyrazol-1-yl]phenyl}acetamide] | 100% | 238 nM
4 | Cc1cc(F)c(Br)cc1CC(=O)Nc1ccc(-n2cc(C(F)(F)F)cn2)c(S(N)(=O)=O)c1 [Example 141, 2-(5-Bromo-4-fluoro-2-methylphenyl)-N-{3-sulfamoyl-4-[4-(trifluoromethyl)-1H-pyrazol-1-yl]phenyl}acetamide] | 96% | 638 nM
5 | COc1cccc(Cl)c1CC(=O)Nc1ccc(-n2cc(C(F)(F)F)cn2)c(S(N)(=O)=O)c1 [Example 142, 2-(2-Chloro-6-methoxyphenyl)-N-{3-sulfamoyl-4-[4-(trifluoromethyl)-1H-pyrazol-1-yl]phenyl}acetamide] | 78% | 116 nM
6 | NS(=O)(=O)c1cc(NC(=O)Cc2c(F)cc(F)cc2Cl)ccc1-n1cc(C(F)(F)F)cn1 [Example 143, 2-(2-Chloro-4,6-difluorophenyl)-N-{3-sulfamoyl-4-[4-(trifluoromethyl)-1H-pyrazol-1-yl]phenyl}acetamide] | 84% | 247 nM
7 | NS(=O)(=O)c1cc(NC(=O)Cc2cccc(F)c2)ccc1-n1cc(F)cn1 [Example 144, 2-(3-Fluorophenyl)-N-[4-(4-fluoro-1H-pyrazol-1-yl)-3-sulfamoylphenyl]acetamide] | 62% | 292 nM
8 | NS(=O)(=O)c1cc(NC(=O)Cc2ccc(F)c(F)c2)ccc1-n1cc(F)cn1 [Example 145, 2-(3,4-Difluorophenyl)-N-[4-(4-fluoro-1H-pyrazol-1-yl)-3-sulfamoylphenyl]acetamide] | 49% | > 25000 nM
9 | NS(=O)(=O)c1cc(NC(=O)Cc2cc(F)cc(F)c2)ccc1-n1cc(F)cn1 [Example 146, 2-(3,5-Difluorophenyl)-N-[4-(4-fluoro-1H-pyrazol-1-yl)-3-sulfamoylphenyl]acetamide] | 66% | 364 nM
10 | NS(=O)(=O)c1cc(NC(=O)Cc2cccc(Cl)c2)ccc1-n1cc(F)cn1 [Example 148, 2-(3-Chlorophenyl)-N-[4-(4-fluoro-1H-pyrazol-1-yl)-3-sulfamoylphenyl]acetamide] | 63% | 132 nM
11 | NS(=O)(=O)c1cc(NC(=O)Cc2ccc(F)cc2)ccc1-n1cc(F)cn1 [Example 149, 2-(4-Fluorophenyl)-N-[4-(4-fluoro-1H-pyrazol-1-yl)-3-sulfamoylphenyl]acetamide] | 56% | 211 nM
12 | NS(=O)(=O)c1cc(NC(=O)Cc2ccc(O)cc2)ccc1-n1cc(F)cn1 [Example 150, N-[4-(4-Fluoro-1H-pyrazol-1-yl)-3-sulfamoylphenyl]-2-(4-hydroxyphenyl)acetamide] | 80% | 433 nM
13 | COc1ccc(CC(=O)Nc2ccc(-n3cc(F)cn3)c(S(N)(=O)=O)c2)cc1 [Example 153, N-[4-(4-Fluoro-1H-pyrazol-1-yl)-3-sulfamoylphenyl]-2-(4-methoxyphenyl)acetamide] | 74% | 182 nM
14 | NS(=O)(=O)c1cc(NC(=O)Cc2cccc(F)c2F)ccc1-n1cc(F)cn1 [Example 155, 2-(2,3-Difluorophenyl)-N-[4-(4-fluoro-1H-pyrazol-1-yl)-3-sulfamoylphenyl]acetamide] | 86% | 108 nM
15 | CCOc1ccccc1CC(=O)Nc1ccc(-n2cc(F)cn2)c(S(N)(=O)=O)c1 [Example 156, 2-(2-Ethoxyphenyl)-N-[4-(4-fluoro-1H-pyrazol-1-yl)-3-sulfamoylphenyl]acetamide] | 94% | 243 nM
16 | NS(=O)(=O)c1cc(NC(=O)Cc2ccccc2OC(F)F)ccc1-n1cc(F)cn1 [Example 157, 2-[2-(Difluoromethoxy)phenyl]-N-[4-(4-fluoro-1H-pyrazol-1-yl)-3-sulfamoylphenyl]-acetamide] | 90% | 153 nM
17 | NS(=O)(=O)c1cc(NC(=O)Cc2cccnc2Cl)ccc1-n1cc(F)cn1 [Example 158, 2-(2-Chloropyridin-3-yl)-N-[4-(4-fluoro-1H-pyrazol-1-yl)-3-sulfamoylphenyl]acetamide] | 89% | 2600 nM

Further molecules by falling IC50, results first:

Row | Emax | IC50 | Structure (SMILES)
18 | 100% | 107 nM | NS(=O)(=O)c1cc(NC(=O)Cc2cc(F)ccc2Cl)ccc1-n1cc(C(F)(F)F)cn1 [Example 139, 2-(2-Chloro-5-fluorophenyl)-N-{3-sulfamoyl-4-[4-(trifluoromethyl)-1H-pyrazol-1-yl]phenyl}acetamide]
19 | 79% | 105 nM | Cc1ccc(CC(=O)Nc2ccc(-n3cc(F)cn3)c(S(N)(=O)=O)c2)cc1 [Example 152, N-[4-(4-Fluoro-1H-pyrazol-1-yl)-3-sulfamoylphenyl]-2-(4-methylphenyl)acetamide]
20 | 83% | 81 nM | Cc1cccc(CC(=O)Nc2ccc(-n3cc(F)cn3)c(S(N)(=O)=O)c2)c1 [Example 151, N-[4-(4-Fluoro-1H-pyrazol-1-yl)-3-sulfamoylphenyl]-2-(3-methylphenyl)acetamide]
21 | 100% | 80 nM | NS(=O)(=O)c1cc(NC(=O)Cc2ccccc2O)ccc1-n1cc(F)cn1 [Example 147, N-[4-(4-Fluoro-1H-pyrazol-1-yl)-3-sulfamoylphenyl]-2-(2-hydroxyphenyl)acetamide]
22 | 92% | 77 nM | NS(=O)(=O)c1cc(NC(=O)Cc2ccccc2C(F)(F)F)ccc1-n1cc(F)cn1 [Example 140, N-[4-(4-Fluoro-1H-pyrazol-1-yl)-3-sulfamoylphenyl]-2-[2-(trifluoromethyl)phenyl]-acetamide]
23 | 90% | 73 nM | COc1ccc(CC(=O)Nc2ccc(-n3cc(C(F)(F)F)cn3)c(S(N)(=O)=O)c2)c(Cl)c1 [Example 135, 2-(2-Chloro-4-methoxyphenyl)-N-{3-sulfamoyl-4-[4-(trifluoromethyl)-1H-pyrazol-1-yl]phenyl}acetamide]
24 | 84% | 30 nM | Cc1ccccc1CC(=O)Nc1ccc(-n2cc(F)cn2)c(S(N)(=O)=O)c1 [Example 154, N-[4-(4-Fluoro-1H-pyrazol-1-yl)-3-sulfamoylphenyl]-2-(2-methylphenyl)acetamide]
25 | 82% | 12 nM | Cc1ccc(F)c(CC(=O)Nc2ccc(-n3cc(F)cn3)c(S(N)(=O)=O)c2)c1Cl [Example 159, 2-(2-Chloro-6-fluoro-3-methylphenyl)-N-[4-(4-fluoro-1H-pyrazol-1-yl)-3-sulfamoyl-phenyl]acetamide]
